Test results taken from patent US9856216B2, “Compounds as TNIK, IKKε and TBK1 inhibitors and pharmaceutical composition comprising same” (GREEN CROSS CORPORATION, priority 2015, dated 2018).
Structures can show the parent of a compound that is named as a salt.

What follows are compounds tested against T1, TNIK (Homo sapiens, UniProt Q9UKE5) (assay: ADP-Glo Kinase Assay, inhibition activity on TNIK). Conditions: not given.
T1 construct: purchased Promega V4158
Format: biochemical
Experimental: The inhibition activities on TNIK, IKKε and TBK1 were measured by a luminometer, TNIK/IKKε/TBK1 Kinase Enzyme System (Promega, Ca# V4158; Invitrogen, PR8031B, Promega, Ca# V3991) and ADP-Glo Kinase Assay using ADP-Glo™ Kinase Analysis Kit (Promega, Ca# V9101) and a kinase reaction buffer [40 mM Tris(pH 7.5), 20 mM MgCl2, 0.1 mg/mL BSA] in accordance with the manufacturer's protocol.

T1 sequence (Q9UKE5 1-367 limits assumed): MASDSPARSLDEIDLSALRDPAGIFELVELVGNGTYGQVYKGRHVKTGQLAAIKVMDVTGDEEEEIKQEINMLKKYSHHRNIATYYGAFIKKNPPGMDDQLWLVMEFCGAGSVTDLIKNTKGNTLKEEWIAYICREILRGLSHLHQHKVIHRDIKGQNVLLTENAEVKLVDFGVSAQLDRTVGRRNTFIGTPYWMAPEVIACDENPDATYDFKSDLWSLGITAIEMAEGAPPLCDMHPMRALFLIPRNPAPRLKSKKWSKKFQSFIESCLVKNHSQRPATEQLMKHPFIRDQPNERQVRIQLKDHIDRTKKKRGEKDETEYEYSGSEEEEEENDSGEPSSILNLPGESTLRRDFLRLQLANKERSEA

Row | SMILES | TNIK (μM)
1 | O=C(Nc1ccc(-c2ccccc2)c2c1C(=O)NC2)c1ccc([N+](=O)[O-])cc1 [Example 119, 4-Nitro-N-(3-oxo-7-phenylisoindolin-4-yl)benzamide] | Insoluble
2 | O=C(Nc1ccc(-c2ccncc2)c2c1C(=O)NC2)c1ccccc1 [Example 127, N-(3-oxo-7-(pyridin-4-yl)isoindolin-4-yl)benzamide] | Insoluble

Same assay, conditions: read-out: TNIK

Row | SMILES | IC50
3 | Cc1ccsc1C(=O)Nc1ccc(-c2ccccc2)c2c1C(=O)NC2 [Example 109, 3-Methyl-N-(3-oxo-7-phenylisoindolin-4-yl)thiophene-2-carboxamide] | > 20 µM
4 | Cc1csc(C(=O)Nc2ccc(-c3ccccc3)c3c2C(=O)NC3)c1 [Example 110, 4-Methyl-N-(3-oxo-7-phenylisoindolin-4-yl)thiophene-2-carboxamide] | > 20 µM
5 | Cc1ccc(C(=O)Nc2ccc(-c3ccccc3)c3c2C(=O)NC3)s1 [Example 111, 5-Methyl-N-(3-oxo-7-phenylisoindolin-4-yl)thiophene-2-carboxamide] | 0.54 µM
6 | Cc1ccccc1-c1ccc(NC(=O)c2ccccc2)c2c1CNC2=O [Example 112, N-(3-oxo-7-(o-tolyl)isoindolin-4-yl)benzamide] | 2.2 µM
7 | Cc1cccc(-c2ccc(NC(=O)c3ccccc3)c3c2CNC3=O)c1 [Example 113, N-(3-oxo-7-(m-tolyl)isoindolin-4-yl)benzamide] | 1.7 µM
8 | O=C(Nc1ccc(-c2ccccc2C(F)(F)F)c2c1C(=O)NC2)c1ccccc1 [Example 114, N-(3-oxo-7-(2-(trifluoromethyl)phenyl)isoindolin-4-yl) benzamide] | > 20 µM
9 | O=C(Nc1ccc(-c2cccc(C(F)(F)F)c2)c2c1C(=O)NC2)c1ccccc1 [Example 115, N-(3-oxo-7-(3-(trifluoromethyl)phenyl)isoindolin-4-yl) benzamide] | > 20 µM
10 | CC(=O)Nc1ccc(C(=O)Nc2ccc(-c3ccccc3)c3c2C(=O)NC3)cc1 [Example 116, 4-Acetamido-N-(3-oxo-7-phenylisoindolin-4-yl)benzamide] | 0.13 µM
11 | O=C(Nc1ccc(-c2ccccc2)c2c1C(=O)NC2)c1ccccc1 [Example 117, N-(3-oxo-7-phenylisoindolin-4-yl)benzamide] | 2.32 µM
12 | COc1ccc(-c2ccc(NC(=O)c3ccccc3)c3c2CNC3=O)cc1 [Example 118, N-(7-(4-methoxyphenyl)-3-oxoisoindolin-4-yl)benzamide] | > 20 µM
13 | COc1ccc(-c2ccc(NC(=O)c3ccc(NC(C)=O)cc3)c3c2CNC3=O)cc1 [Example 120, 4-Acetamido-N-(7-(4-methoxyphenyl)-3-oxoisoindolin-4-yl) benzamide] | > 20 µM
14 | COc1ccc(C(=O)Nc2ccc(-c3ccccc3)c3c2C(=O)NC3)cc1 [Example 121, 4-Methoxy-N-(3-oxo-7-phenylisoindolin-4-yl)benzamide] | 3.4 µM
15 | O=C(Nc1ccc(-c2ccccc2)c2c1C(=O)NC2)c1ccc(F)cc1 [Example 122, 4-Fluoro-N-(3-oxo-7-phenylisoindolin-4-yl)benzamide] | 2.2 µM
16 | COc1ccc(C(=O)Nc2ccc(-c3ccc(F)cc3)c3c2C(=O)NC3)cc1 [Example 123, N-(7-(4-fluorophenyl)-3-oxoisoindolin-4-yl)-4-methoxy benzamide] | 7 µM
17 | CC(=O)Nc1ccc(C(=O)Nc2ccc(-c3ccc(F)cc3)c3c2C(=O)NC3)cc1 [Example 124, 4-Acetamido-N-(7-(4-fluorophenyl)-3-oxoisoindolin-4-yl) benzamide] | 0.17 µM
18 | O=C(Nc1ccc(-c2cccs2)c2c1C(=O)NC2)c1ccccc1 [Example 125, N-(3-oxo-7-(thiophen-2-yl)isoindolin-4-yl)benzamide] | 1.4 µM
19 | O=C(Nc1ccc(-c2ccco2)c2c1C(=O)NC2)c1ccccc1 [Example 126, N-(7-(furan-2-yl)-3-oxoisoindolin-4-yl)benzamide] | 0.6 µM
20 | O=C(Nc1ccc(-c2ccncc2)c2c1C(=O)NC2)c1ccccc1 [Example 128, N-(3-oxo-7-(pyridin-4-yl)isoindolin-4-yl)benzamide hydrochloride] | > 20 µM
21 | COc1ccccc1C(=O)Nc1ccc(-c2ccccc2)c2c1C(=O)NC2 [Example 129, 2-Methoxy-N-(3-oxo-7-phenylisoindolin-4-yl)benzamide] | > 20 µM
22 | O=C(Nc1ccc(-c2ccccc2)c2c1C(=O)NC2)c1cccc(F)c1 [Example 130, 3-fluoro-N-(3-oxo-7-phenylisoindolin-4-yl)benzamide] | > 20 µM
23 | CSc1ccc(C(=O)Nc2ccc(-c3ccccc3)c3c2C(=O)NC3)cc1 [Example 131, 4-(Methylthio)-N-(3-oxo-7-phenylisoindolin-4-yl)benzamide] | 2.3 µM
24 | CCCOc1ccc(-c2ccc(NC(=O)c3ccccc3)c3c2CNC3=O)cc1 [Example 132, N-(3-oxo-7-(4-propoxyphenyl)isoindolin-4-yl)benzamide] | > 20 µM
25 | CC(C)c1ccc(-c2ccc(NC(=O)c3ccccc3)c3c2CNC3=O)cc1 [Example 133, N-(7-(4-isopropylphenyl)-3-oxoisoindolin-4-yl)benzamide] | > 20 µM
26 | COc1cccc(-c2ccc(NC(=O)c3ccco3)c3c2CNC3=O)c1OC [Example 134, N-(7-(2,3-dimethoxyphenyl)-3-oxoisoindolin-4-yl)furan-2-carboxamide] | 0.054 µM

Row | SMILES | IC50
27 | COc1cccc(-c2ccc(NC(=O)c3ccc(F)cc3)c3c2CNC3=O)c1OC [Example 135, N-(7-(2,3-dimethoxyphenyl)-3-oxoisoindolin-4-yl)-4-fluoro benzamide] | 0.14 µM
28 | COc1cccc(-c2ccc(NC(=O)c3cccs3)c3c2CNC3=O)c1OC [Example 136, N-(7-(2,3-dimethoxyphenyl)-3-oxoisoindolin-4-yl)thiophene-2-carboxamide] | 0.068 µM
29 | Cc1cc(F)ccc1C(=O)Nc1ccc(-c2ccccc2)c2c1C(=O)NC2 [Example 137, 4-Fluoro-2-methyl-N-(3-oxo-7-phenylisoindolin-4-yl) benzamide] | > 20 µM
30 | COc1ccccc1-c1ccc(NC(=O)c2ccc(NC(C)=O)cc2)c2c1CNC2=O [Example 138, 4-Acetamido-N-(7-(2-methoxyphenyl)-3-oxoisoindolin-4-yl) benzamide] | 0.2 µM
31 | CN(C)c1ccc(C(=O)Nc2ccc(-c3ccccc3)c3c2C(=O)NC3)cc1 [Example 139, 4-(Dimethylamino)-N-(3-oxo-7-phenylisoindolin-4-yl) benzamide] | 1.8 µM
32 | CC(=O)Nc1ccc(C(=O)Nc2ccc(-c3ccco3)c3c2C(=O)NC3)cc1 [Example 140, 4-Acetamido-N-(7-(furan-2-yl)-3-oxoisoindolin-4-yl) benzamide] | 0.3 µM
33 | COc1ccccc1-c1ccc(NC(=O)c2ccc(F)cc2)c2c1CNC2=O [Example 141, 4-Fluoro-N-(7-(2-methoxyphenyl)-3-oxoisoindolin-4-yl) benzamide] | 1.6 µM
34 | O=C(Nc1ccc(-c2ccccc2)c2c1C(=O)NC2)c1ccccc1F [Example 142, 2-Fluoro-N-(3-oxo-7-phenylisoindolin-4-yl)benzamide] | 0.95 µM
35 | O=C(Nc1ccc(-c2ccccc2)c2c1C(=O)NC2)c1ccc(Cl)cc1 [Example 143, 4-Chloro-N-(3-oxo-7-phenylisoindolin-4-yl)benzamide] | 1.1 µM
36 | COc1ccccc1-c1ccc(NC(=O)c2ccccc2)c2c1CNC2=O [Example 144, N-(7-(2-methoxyphenyl)-3-oxoisoindolin-4-yl)benzamide] | 0.7 µM
37 | COc1cccc(-c2ccc(NC(=O)c3ccccc3)c3c2CNC3=O)c1 [Example 145, N-(7-(3-methoxyphenyl)-3-oxoisoindolin-4-yl)benzamide] | 1.3 µM
38 | O=C(Nc1ccc(-c2ccsc2)c2c1C(=O)NC2)c1ccccc1 [Example 146, N-(3-oxo-7-(thiophen-3-yl)isoindolin-4-yl)benzamide] | > 20 µM
39 | N#Cc1cccc(-c2ccc(NC(=O)c3ccccc3)c3c2CNC3=O)c1 [Example 147, N-(7-(3-cyanophenyl)-3-oxoisoindolin-4-yl)benzamide] | > 20 µM
40 | CN(C)c1cccc(-c2ccc(NC(=O)c3ccccc3)c3c2CNC3=O)c1 [Example 148, N-(7-(3-(dimethylamino)phenyl)-3-oxoisoindolin-4-yl) benzamide] | 7.4 µM
41 | O=C(Nc1ccc(-c2ccccc2F)c2c1C(=O)NC2)c1ccccc1 [Example 149, N-(7-(2-fluorophenyl)-3-oxoisoindolin-4-yl)benzamide] | 3.8 µM
42 | O=C(Nc1ccc(-c2ccoc2)c2c1C(=O)NC2)c1ccccc1 [Example 150, N-(7-(furan-3-yl)-3-oxoisoindolin-4-yl)benzamide] | 2.7 µM
43 | O=C(Nc1ccc(-c2cccc(F)c2)c2c1C(=O)NC2)c1ccccc1 [Example 151, N-(7-(3-fluorophenyl)-3-oxoisoindolin-4-yl)benzamide] | 1.5 µM
44 | O=C(Nc1ccc(-c2cccnc2)c2c1C(=O)NC2)c1ccccc1 [Example 152, N-(3-oxo-7-(pyridin-3-yl)isoindolin-4-yl)benzamide] | > 20 µM
45 | O=C(Nc1ccc(-c2cncnc2)c2c1C(=O)NC2)c1ccccc1 [Example 154, N-(3-oxo-7-(pyrimidin-5-yl)isoindolin-4-yl)benzamide] | > 20 µM
46 | O=C(Nc1ccc(-c2ccccc2)c2c1C(=O)NC2)c1sccc1Cl [Example 155, 3-Chloro-N-(3-oxo-7-phenylisoindolin-4-yl)thiophene-2-carboxamide] | 2.29 µM
47 | O=C(Nc1ccc(-c2ccccc2)c2c1C(=O)NC2)c1ccc(Br)s1 [Example 156, 5-Bromo-N-(3-oxo-7-phenylisoindolin-4-yl)thiophene-2-carboxamide] | 2.86 µM
48 | O=C(Nc1ccc(-c2ccccc2)c2c1C(=O)NC2)c1sccc1Br [Example 157, 3-Bromo-N-(3-oxo-7-phenylisoindolin-4-yl)thiophene-2-carboxamide] | 3.4 µM
49 | O=C(Nc1ccc(-c2ccco2)c2c1C(=O)NC2)c1ccc(F)cc1 [Example 158, 4-Fluoro-N-(7-(furan-2-yl)-3-oxoisoindolin-4-yl)benzamide] | 1.27 µM
